What all share (experiment): kinase panel
What all share (type): biochemical

One assay has as its target MEK1(h) (Homo sapiens, UniProt Q02750). The source says:
(§1) We profiled three compounds from the series across the kinome (Table S1).
(§2) Ta b l e S1. The % inhibition of compounds 4, 5r [SU1261], and 6g [SU1349] against a
(§3) panel of kinase enzymes. We proϐiled three compounds from the series across 231
(§4) kinases. For SU1349, given its structural similarity with SU1261, we selected 98 from the
(§5) Tested kinase % inhibiƟon

For another assay, the target named is T1, JAK3(h) (Homo sapiens, UniProt P52333).
T1 sequence (P52333 1-1124): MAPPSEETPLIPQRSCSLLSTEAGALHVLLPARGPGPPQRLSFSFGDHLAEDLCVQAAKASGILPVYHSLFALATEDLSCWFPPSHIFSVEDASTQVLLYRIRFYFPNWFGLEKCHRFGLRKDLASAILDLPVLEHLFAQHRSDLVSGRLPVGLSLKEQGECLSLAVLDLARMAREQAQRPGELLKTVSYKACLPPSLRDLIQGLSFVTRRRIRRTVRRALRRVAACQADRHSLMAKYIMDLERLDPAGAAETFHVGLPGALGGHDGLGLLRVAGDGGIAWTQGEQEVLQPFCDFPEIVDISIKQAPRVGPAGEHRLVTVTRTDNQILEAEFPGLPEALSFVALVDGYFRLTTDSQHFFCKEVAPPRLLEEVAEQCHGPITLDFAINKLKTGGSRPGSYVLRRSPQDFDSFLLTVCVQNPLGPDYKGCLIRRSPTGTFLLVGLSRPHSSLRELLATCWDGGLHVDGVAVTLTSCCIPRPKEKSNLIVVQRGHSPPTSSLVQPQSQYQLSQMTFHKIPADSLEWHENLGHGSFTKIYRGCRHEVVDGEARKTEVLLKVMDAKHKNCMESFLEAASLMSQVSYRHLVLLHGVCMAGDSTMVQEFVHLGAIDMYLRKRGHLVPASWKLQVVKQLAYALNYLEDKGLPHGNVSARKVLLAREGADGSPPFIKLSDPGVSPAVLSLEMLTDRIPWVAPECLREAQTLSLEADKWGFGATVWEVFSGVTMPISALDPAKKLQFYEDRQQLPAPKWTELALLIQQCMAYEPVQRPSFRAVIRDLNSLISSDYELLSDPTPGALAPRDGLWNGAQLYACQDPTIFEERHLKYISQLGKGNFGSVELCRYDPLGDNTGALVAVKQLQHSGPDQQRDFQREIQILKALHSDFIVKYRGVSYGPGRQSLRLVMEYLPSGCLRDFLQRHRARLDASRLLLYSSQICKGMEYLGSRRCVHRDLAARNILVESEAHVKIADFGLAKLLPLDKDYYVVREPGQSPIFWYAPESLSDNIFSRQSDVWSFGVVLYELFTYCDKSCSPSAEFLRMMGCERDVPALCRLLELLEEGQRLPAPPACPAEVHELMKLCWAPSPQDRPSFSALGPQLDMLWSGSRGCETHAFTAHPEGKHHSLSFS
Source text: as §1, §2, §3, §4, §5

The target in the next assay is IR(h) (Homo sapiens, UniProt P06213).
Chain of IR(h) (P06213 28-1382): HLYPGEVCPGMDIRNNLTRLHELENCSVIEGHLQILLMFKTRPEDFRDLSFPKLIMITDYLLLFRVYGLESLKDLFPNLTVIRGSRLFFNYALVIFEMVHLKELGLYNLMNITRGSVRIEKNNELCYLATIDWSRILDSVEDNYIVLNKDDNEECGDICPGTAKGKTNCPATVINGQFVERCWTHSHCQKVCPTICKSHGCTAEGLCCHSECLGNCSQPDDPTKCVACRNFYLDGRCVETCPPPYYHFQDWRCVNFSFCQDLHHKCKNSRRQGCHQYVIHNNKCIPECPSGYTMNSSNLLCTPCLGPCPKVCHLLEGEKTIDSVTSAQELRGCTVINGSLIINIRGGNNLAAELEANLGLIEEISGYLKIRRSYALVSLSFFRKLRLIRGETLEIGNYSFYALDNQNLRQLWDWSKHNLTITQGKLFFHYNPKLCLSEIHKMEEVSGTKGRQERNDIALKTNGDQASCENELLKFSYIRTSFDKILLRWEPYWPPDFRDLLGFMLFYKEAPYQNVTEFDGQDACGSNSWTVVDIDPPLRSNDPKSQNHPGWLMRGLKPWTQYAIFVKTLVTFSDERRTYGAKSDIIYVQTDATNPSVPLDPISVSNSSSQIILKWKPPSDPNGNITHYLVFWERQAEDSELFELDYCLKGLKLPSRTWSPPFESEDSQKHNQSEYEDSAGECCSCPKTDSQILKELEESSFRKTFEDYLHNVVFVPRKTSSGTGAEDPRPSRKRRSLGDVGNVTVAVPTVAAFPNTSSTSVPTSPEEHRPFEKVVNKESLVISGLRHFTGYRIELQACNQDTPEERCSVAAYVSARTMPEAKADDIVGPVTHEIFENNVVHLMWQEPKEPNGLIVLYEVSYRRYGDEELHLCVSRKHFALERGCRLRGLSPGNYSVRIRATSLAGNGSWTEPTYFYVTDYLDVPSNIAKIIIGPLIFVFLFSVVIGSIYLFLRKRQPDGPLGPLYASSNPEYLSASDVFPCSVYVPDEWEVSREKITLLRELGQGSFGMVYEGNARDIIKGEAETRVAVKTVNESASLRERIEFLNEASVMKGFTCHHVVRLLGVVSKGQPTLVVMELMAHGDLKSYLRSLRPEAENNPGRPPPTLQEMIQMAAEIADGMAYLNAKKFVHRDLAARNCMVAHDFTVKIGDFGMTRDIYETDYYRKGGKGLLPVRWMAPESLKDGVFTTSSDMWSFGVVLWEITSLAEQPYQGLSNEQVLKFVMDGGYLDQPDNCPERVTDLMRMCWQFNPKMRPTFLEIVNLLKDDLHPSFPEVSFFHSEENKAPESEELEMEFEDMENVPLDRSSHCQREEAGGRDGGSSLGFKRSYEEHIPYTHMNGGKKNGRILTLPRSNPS
Source text: as §1, §2, §3, §4, §5

In another assay the target is PKCα(h) (Homo sapiens, UniProt P17252).
Source text: as §1, §2, §3, §4, §5

A further assay deals with PKBα(h) (Homo sapiens, UniProt P31749).
Chain of PKBα(h) (P31749 whole entry): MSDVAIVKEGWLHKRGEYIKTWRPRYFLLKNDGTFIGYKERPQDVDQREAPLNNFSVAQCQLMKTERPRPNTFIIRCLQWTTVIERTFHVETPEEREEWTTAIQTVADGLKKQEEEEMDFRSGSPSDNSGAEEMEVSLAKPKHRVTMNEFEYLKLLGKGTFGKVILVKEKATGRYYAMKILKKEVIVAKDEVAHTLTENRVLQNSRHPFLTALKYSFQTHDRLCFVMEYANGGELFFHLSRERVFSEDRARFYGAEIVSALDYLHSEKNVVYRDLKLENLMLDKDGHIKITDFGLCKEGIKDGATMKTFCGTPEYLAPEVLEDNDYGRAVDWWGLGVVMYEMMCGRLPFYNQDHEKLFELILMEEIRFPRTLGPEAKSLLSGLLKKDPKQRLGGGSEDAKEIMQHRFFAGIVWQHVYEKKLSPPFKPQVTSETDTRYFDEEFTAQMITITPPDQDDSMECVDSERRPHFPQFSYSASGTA
Source text: as §1, §2, §3, §4, §5

For a further assay, the target named is T2, PKD2(h) (Homo sapiens, UniProt Q9BZL6).
T2 sequence (Q9BZL6 1-878): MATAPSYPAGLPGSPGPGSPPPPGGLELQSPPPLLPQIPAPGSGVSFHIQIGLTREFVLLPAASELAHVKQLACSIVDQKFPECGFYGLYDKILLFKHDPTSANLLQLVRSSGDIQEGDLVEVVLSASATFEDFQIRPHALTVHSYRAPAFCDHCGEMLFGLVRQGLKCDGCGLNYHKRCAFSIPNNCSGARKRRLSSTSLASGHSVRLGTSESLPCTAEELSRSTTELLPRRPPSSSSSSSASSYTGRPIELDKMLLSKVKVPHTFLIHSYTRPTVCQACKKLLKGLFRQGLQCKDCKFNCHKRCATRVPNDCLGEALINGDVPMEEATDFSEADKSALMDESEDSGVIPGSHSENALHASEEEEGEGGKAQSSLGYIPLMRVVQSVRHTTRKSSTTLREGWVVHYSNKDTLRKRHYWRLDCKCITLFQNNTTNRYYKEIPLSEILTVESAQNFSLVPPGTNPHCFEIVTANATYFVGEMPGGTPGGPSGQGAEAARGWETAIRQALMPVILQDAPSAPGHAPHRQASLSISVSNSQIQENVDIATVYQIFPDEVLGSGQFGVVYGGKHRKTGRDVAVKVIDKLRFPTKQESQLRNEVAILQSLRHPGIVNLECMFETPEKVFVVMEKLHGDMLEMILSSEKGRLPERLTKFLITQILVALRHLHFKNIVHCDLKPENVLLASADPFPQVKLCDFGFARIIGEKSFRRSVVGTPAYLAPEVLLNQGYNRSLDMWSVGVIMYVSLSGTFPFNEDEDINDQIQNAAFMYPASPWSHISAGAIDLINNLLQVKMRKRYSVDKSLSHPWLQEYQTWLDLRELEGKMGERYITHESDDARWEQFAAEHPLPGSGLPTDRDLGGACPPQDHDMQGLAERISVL
Source text: as §1, §2, §3, §4, §5

Another assay has as its target CLK2(h) (Homo sapiens, UniProt P49760).
Source text: as §1, §2, §3, §4, §5

The target of a further assay is LIMK1(h) (Homo sapiens, UniProt P53667).
Chain of LIMK1(h) (P53667 whole entry): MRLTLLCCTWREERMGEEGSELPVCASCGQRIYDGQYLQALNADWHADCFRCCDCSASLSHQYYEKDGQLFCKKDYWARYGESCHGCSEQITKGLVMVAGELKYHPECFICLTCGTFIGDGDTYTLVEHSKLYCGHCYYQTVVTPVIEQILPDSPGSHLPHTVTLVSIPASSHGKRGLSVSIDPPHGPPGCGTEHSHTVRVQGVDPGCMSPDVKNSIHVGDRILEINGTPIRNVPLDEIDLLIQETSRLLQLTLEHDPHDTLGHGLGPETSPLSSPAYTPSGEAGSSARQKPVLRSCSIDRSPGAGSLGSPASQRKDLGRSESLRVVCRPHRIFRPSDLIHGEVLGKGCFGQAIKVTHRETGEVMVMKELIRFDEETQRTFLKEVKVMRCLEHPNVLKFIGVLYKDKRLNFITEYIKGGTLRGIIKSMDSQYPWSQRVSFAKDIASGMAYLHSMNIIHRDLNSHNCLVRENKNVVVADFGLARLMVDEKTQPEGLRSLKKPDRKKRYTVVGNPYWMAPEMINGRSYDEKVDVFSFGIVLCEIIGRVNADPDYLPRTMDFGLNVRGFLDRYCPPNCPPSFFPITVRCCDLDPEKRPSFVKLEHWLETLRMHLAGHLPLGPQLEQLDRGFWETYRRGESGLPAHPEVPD
Source text: as §1, §2, §3, §4, §5

A further assay deals with DAPK1(h) (Homo sapiens, UniProt P53355).
Source text: as §1, §2, §3, §4, §5

The next assay addresses ROCK-II(h) (Homo sapiens, UniProt O75116).
Source text: as §1, §2, §3, §4, §5

A further assay addresses CaMKIIγ(h) (Homo sapiens, UniProt Q13555).
Source text: as §1, §2, §3, §4, §5

Another assay concerns the target CDK5/p25(h) (Homo sapiens, UniProt Q00535).
Source text: as §1, §2, §3, §4, §5

For a further assay, the target named is Syk(h) (Homo sapiens, UniProt P43405).
Source text: as §1, §2, §3, §4, §5

Chain of CLK2(h) (P49760 whole entry): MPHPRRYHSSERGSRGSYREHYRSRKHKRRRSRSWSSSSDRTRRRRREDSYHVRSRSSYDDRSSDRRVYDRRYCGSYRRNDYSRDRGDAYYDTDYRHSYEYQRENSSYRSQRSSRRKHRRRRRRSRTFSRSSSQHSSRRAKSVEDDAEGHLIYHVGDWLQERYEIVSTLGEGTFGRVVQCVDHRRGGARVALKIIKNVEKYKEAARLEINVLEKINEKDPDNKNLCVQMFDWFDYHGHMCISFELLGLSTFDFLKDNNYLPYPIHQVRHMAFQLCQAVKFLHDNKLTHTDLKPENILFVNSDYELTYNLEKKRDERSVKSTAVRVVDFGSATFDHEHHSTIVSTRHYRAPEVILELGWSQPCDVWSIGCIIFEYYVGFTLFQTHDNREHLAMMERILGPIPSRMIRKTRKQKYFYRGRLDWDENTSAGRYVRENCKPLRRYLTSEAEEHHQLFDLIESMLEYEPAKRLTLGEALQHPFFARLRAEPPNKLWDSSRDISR
Chain of ROCK-II(h) (O75116 whole entry): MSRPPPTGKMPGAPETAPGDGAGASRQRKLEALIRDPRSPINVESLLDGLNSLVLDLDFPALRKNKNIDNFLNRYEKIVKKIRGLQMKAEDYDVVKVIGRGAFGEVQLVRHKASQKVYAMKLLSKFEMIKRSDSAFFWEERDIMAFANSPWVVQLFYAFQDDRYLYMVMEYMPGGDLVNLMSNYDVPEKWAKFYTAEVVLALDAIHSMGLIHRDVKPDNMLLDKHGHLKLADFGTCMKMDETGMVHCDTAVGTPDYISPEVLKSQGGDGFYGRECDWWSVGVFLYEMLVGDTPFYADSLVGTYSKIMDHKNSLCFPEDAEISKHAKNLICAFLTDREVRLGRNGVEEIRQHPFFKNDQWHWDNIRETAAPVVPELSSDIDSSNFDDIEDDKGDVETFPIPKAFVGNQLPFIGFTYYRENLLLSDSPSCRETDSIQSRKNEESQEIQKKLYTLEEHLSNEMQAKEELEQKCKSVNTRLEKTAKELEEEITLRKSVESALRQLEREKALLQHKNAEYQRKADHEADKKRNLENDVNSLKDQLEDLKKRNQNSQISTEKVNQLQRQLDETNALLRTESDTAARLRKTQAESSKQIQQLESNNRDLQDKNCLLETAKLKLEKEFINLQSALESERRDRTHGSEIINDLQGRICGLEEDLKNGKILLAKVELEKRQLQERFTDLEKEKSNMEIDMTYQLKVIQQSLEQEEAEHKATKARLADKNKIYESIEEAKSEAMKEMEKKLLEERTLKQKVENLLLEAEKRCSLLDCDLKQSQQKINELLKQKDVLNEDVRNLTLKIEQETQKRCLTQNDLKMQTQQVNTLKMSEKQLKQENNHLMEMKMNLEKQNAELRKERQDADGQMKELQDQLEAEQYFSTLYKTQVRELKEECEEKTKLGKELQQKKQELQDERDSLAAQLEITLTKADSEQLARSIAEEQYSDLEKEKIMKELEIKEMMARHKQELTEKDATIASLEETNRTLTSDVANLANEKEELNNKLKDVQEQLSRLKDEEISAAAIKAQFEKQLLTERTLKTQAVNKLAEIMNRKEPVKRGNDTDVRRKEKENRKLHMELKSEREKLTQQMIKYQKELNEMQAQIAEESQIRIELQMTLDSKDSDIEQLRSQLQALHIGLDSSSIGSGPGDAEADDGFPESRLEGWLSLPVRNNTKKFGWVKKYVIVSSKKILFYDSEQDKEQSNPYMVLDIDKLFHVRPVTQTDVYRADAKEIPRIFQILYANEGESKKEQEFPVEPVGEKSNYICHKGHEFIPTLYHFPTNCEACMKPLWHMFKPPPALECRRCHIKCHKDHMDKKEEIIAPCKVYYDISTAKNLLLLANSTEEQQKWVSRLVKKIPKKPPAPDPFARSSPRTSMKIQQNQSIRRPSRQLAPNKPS

What is called inhibition is the relative decrease from the control value, in per cent. Turning to `Nc1n[nH]c2ccc(-c3ccnc4[nH]c(-c5ccccc5)cc34)cc12` [Compound 4], the inhibition at 1 µM at MEK1(h) turned out to be 8%; at JAK3(h) it was 76%; at IR(h), 50%; against PKCα(h) it was 5%; at PKBα(h), 8%; on PKD2(h), 8%. Further, the inhibition at 1 µM was 97% against CLK2(h); 58% against LIMK1(h); -1% on DAPK1(h); 89% against ROCK-II(h); 93% against CaMKIIγ(h); 101% on CDK5/p25(h). On Syk(h), the inhibition at 1 µM came out at 77%.
For `Nc1n[nH]c2ccc(-c3ccnc4[nH]c(-c5cccc(OCc6ccccc6)c5)cc34)cc12` [Compound 5r [SU1261]], the inhibition at 1 µM against MEK1(h) is 0%; on JAK3(h), 30%; on IR(h), 4%; on PKCα(h), 23%; against PKBα(h), 10%; at PKD2(h) it was -1%. For the same compound, the inhibition at 1 µM against CLK2(h) is 80%; at LIMK1(h), 21%; at DAPK1(h), -15%; against ROCK-II(h), 58%; against CaMKIIγ(h), 84%; at CDK5/p25(h), 96%. On Syk(h), the inhibition at 1 µM was 32%.
As for `Nc1n[nH]c2ccc(-c3ccnc4[nH]c(-c5ccnc(OCc6ccccc6)c5)cc34)cc12` [Compound 6g [SU1349]], the inhibition at 1 µM was 8% against MEK1(h); 18% against JAK3(h); -1% on IR(h); -1% against PKCα(h); 4% at PKBα(h); -5% on PKD2(h). Further, the inhibition at 1 µM at CLK2(h) is 68%; on LIMK1(h), 15%; against DAPK1(h), 4%; against ROCK-II(h) it was 25%; on CaMKIIγ(h), 46%; at CDK5/p25(h), 92%. In addition, the inhibition at 1 µM against Syk(h) worked out at 25%.

Source of the values: publication PMC11314561, “Design and Synthesis of Novel Aminoindazole-pyrrolo[2,3-b]pyridine Inhibitors of IKKα That Selectively Perturb Cellular Non-Canonical NF-κB Signalling” (Molecules, 2024).
